Source: patent US20260297136A1, “PEPTIDES WITH LIPOLYTIC, ANTI-LIPOGENIC, ANTIFIBROTIC AND ANTI-INFLAMMATORY ACTIVITY” (FUNDACIÓ HOSPITAL UNIVERSITARI VALL D'HEBRON - INSTITUT DE …, priority 2023, published 2026)

Key:
human mature adipocytes = assay: Lipolysis in human mature adipocytes (glycerol production), Example 3; assay type: cell-based; details: 16 h
Description: FIG. 4 Mature human subcutaneous adipocytes were treated with vehicle (DMSO), 1 μM of Isoproterenol, Semaglutide (10 nM) or GP6 (25, 50 or 100 μg/ml) for 16 h. Glycerol concentration was assessed using a Lipolysis Assay Kit (Tebu-bio).
Human preadipocytes and cell culture reagents were from purchased from Tebu-Bio (Tebu-bio, Barcelona, Spain) and differentiation protocol was done following the manufacturer's instructions. Human adipocytes were maintained in a humidified incubator with 5% CO2 at 37° C. (Sex hormone-binding globulin overexpression protects against high-fat diet-induced obesity in transgenic male mice. Saez-Lopez C, Villena J A, Simo R, Selva D M. J Nutr Biochem. 2020 November; 85:108480. doi: 10.1016/j.jnutbio.2020.108480).
Lipolysis assays were performed using a Lipolysis Kit (Tebu-Bio) following the manufacturer's instructions as previously described by Saez-Lopez and collaborators (Sex hormone-binding globulin overexpression protects against high-fat diet-induced obesity in transgenic male mice. Saez-Lopez C, Villena J A, Simo R, Selva D M. J Nutr Biochem. 2020 November; 85:108480. doi: 10.1016/j.jnutbio.2020.108480.)

HepG2 cells [1] = assay: Hepatic lipogenesis gene expression in HepG2 cells (24 h), Example 7; assay type: cell-based, human; details: 40 μg/ml, vs vehicle
Excerpt: (§1) FIG. 32. Effect of GP6 and modified peptides on hepatic lipogenesis in HepG2 cells. Each bar within each group represents mRNA levels of a key hepatic lipogenic enzyme, from left to right: Acetyl-CoA Carboxylase (ACC), ATP Citrate Lyase (ACLY) and Fatty Acid Synthase (FAS), and a key transcription factor regulating several lipogenic enzymes such as PPARγ (PPARγ).
(§2) Cell culture reagents were from Life Technologies Inc (Invitrogen SA, Barcelona, Spain). HepG2 hepatoblastoma cells (cat. no. HB-8065; ATCC, LGC Standards SLU, Barcelona, Spain) were maintained in Dulbecco's modified Eagle medium (DMEM) supplemented with 10% fetal bovine serum and antibiotics.
(§3) • HepG2 cells were cultured for 5 day in the absence or presence of 30 mM fructose. Cells cultured in 30 mM fructose were daily treated with vehicle, Telmisartan, Semaglutide or EDL6D. • HepG2 cells were cultured for 24 h in the absence or presence of GP6 (40 μg/ml), GP10 (40 μg/ml), GP11 (40 μg/ml), GP12 (40 μg/ml), GP13 (40 μg/ml) or SHBG (20 nM). • HepG2 cells were cultured in the absence or presence of 30 mM fructose and treated for 2 h with vehicle or GP4 (40 μg/ml), GP6 (40 μg/ml), GP7 (40 μg/ml), GP8 (40 μg/ml), GP9 (40 μg/ml), GP10 (40 μg/ml), GP11 (40 μg/ml), GP12 (40 μg/ml), GP13 (40 μg/ml) or SHBG (20 nM).
(§4) Total RNA was extracted from HepG2 and LX-2 cells using TRIzol reagent (Invitrogen SA). Reverse transcription was performed at 42° C. for 50 minutes using […] of total RNA, 200 U of Superscript II, and an oligo-dT primer and reagents provided by Invitrogen. An aliquot of the reverse transcription product was amplified in a […] reaction using SYBRGreen (Invitrogen SA) with appropriate oligonucleotide primer pairs corresponding to human SHBG, ACC, FAS, ACLY, PPARG, and 18S and mouse ACC, FAS, ACLY, PPARG, Col1A1 and 18S. Results were analyzed using the 7000 Sequence Detection System program (Applied Biosystems, Thermo Fisher Scientific, Barcelona, Spain) (Shez-Lopez et al Endocrinology 2017).

HepG2 cells [2] = assay: Hepatic lipogenic key enzymes in HepG2 cells in the presence of 30 mM fructose (2 h), Example 7; assay type: cell-based, human; details: 40 μg/ml
Description: as §1, with “34. Effects” for “32. Effect”, “different peptides” for “GP6”, “SHBG in reducing” for “modified peptides on”, “lipogenic key enzymes” for “lipogenesis”, “the presence of 30 mM fructose.” for “HepG2 cells.”
as §2, §3, §4

LX-2 cells = assay: Fibrosis in LX-2 cells: Col1A1 mRNA induced by TGFβ1, Example 3; assay type: cell-based, human; details: 24 h
Description: FIG. 3 Human hepatic stellate cell line LX-2 was treated with vehicle (DMSO) or TGFβ1 (10 ng/ml) in the absence or presence of GP6 (10 or 40 μg/ml) for 24 h. RNA was extracted and mRNA levels of collagen 1A1 (Col1A1) relative to 18S were measured by RTPCR.
Cell culture reagents were from Life Technologies Inc (Invitrogen SA, Barcelona, Spain). HepG2 hepatoblastoma cells (cat. no. HB-8065; ATCC, LGC Standards SLU, Barcelona, Spain) were maintained in Dulbecco's modified Eagle medium (DMEM) supplemented with 10% fetal bovine serum and antibiotics. HepG2 cells were cultured for 5 day in the absence or presence of 30 mM fructose. Cells cultured in 30 mM fructose were daily treated with vehicle, Telmisartan, Semaglutide or GP6. LX-2 human hepatic stellate cells (SCC064) were maintained in DMEM supplemented with 2% fetal bovine serum and antibiotics. […]
Total RNA was extracted from HepG2 and LX-2 cells using TRIzol reagent (Invitrogen SA). […] Results were analyzed using the 7000 Sequence Detection System program (Applied Biosystems, Thermo Fisher Scientific, Barcelona, Spain) (Sex Hormone-Binding Globulin Reduction in Metabolic Disorders May Play a Role in NAFLD Development.Saez-Lopez C, Barbosa-Desongles A, Hernandez C, Dyer R A, Innis S M, Simo R, Selva D M. Endocrinology. 2017 Mar. 1; 158(3):545-559. doi: 10.1210/en.2016-1668).

Structure (SMILES): CC[C@@H](C)[C@@H](NC(=O)[C@H](NC(=O)CNC(=O)[C@@H](CCC(=O)O)NC(=O)[C@H]1CCCN1C(=O)[C@@H](CC(=O)O)NC(=O)[C@@H](Cc1c[nH]c2ccccc12)NC(=O)[C@H](NC(=O)[C@@H](CCCNC(=N)N)NC(=O)[C@H](NC(=O)[C@@H](CCC(=O)O)NC(=O)[C@@H](Cc1ccccc1)NC(=O)[C@@H](CO)NC(=O)[C@@H](CO)NC(=O)[C@@H](CO)NC(=O)[C@H](NC(=O)[C@@H](CCCCN)NC(=O)[C@H](N)[C@H](C)O)[C@H](C)O)C(C)C)[C@H](C)O)C(C)C)C(=O)N[C@H](Cc1ccccc1)C(=O)N[C@H](Cc1ccc(O)cc1)C(=O)O [GP6]
- increase of glycerol production (lipolysis) (human mature adipocytes; 25 μg/ml): 200%
- increase of glycerol production (lipolysis) (human mature adipocytes; 50 μg/ml): 270%
- increase of glycerol production (lipolysis) (human mature adipocytes; 100 μg/ml): 315%
- lipolysis induction compared with Semaglutide (human mature adipocytes; GP6 25, 50 or 100 μg/ml versus Semaglutide 10 nM): performing more efficiently than Semaglutide
- ACC mRNA levels (HepG2 cells [1]): reduced the mRNA levels
- ACLY mRNA levels (HepG2 cells [1]): reduced the mRNA levels
- FAS mRNA levels (HepG2 cells [1]): reduced the mRNA levels
- PPARγ mRNA levels (HepG2 cells [1]): reduced the mRNA levels
- fructose-induced expression of ACC (HepG2 cells [2]): able to reduce
- fructose-induced expression of ACLY (HepG2 cells [2]): able to reduce
- fructose-induced expression of FAS (HepG2 cells [2]): able to reduce
- fructose-induced expression of PPARγ (HepG2 cells [2]): able to reduce
- reduction of mRNA levels of collagen 1A1 induced by TGFβ1 (LX-2 cells; 10 μg/ml): 28%
- reduction of mRNA levels of collagen 1A1 induced by TGFβ1 (LX-2 cells; 40 μg/ml): 45%
